# Laboratory results: ChEMBL document CHEMBL6114958, “Progress in the study of anti-Alzheimer's disease activity of pyrimidine-containing bioactive molecules” (Eur J Med Chem, 2025)
# Columns and labels:
# Acetylcholinesterase [1] = target: T1, Acetylcholinesterase (Homo sapiens, UniProt P22303); test: Inhibition of recombinant human AChE using acetylthiocholine iodide as substrate by Ellman's method
# Acetylcholinesterase [2] = target: T1, Acetylcholinesterase; test: Inhibition of Acetylcholinesterase (unknown origin) activity measured after 15 mins by Amplex Red reagent assay
# [3] = target: T2, Amine oxidase [flavin-containing] A (Homo sapiens, UniProt P21397); test: Inhibition of recombinant human MAO-A assessed as fluorescence measured after 30 mins by Amplex Red reagent assay
# T2 sequence (P21397 whole entry): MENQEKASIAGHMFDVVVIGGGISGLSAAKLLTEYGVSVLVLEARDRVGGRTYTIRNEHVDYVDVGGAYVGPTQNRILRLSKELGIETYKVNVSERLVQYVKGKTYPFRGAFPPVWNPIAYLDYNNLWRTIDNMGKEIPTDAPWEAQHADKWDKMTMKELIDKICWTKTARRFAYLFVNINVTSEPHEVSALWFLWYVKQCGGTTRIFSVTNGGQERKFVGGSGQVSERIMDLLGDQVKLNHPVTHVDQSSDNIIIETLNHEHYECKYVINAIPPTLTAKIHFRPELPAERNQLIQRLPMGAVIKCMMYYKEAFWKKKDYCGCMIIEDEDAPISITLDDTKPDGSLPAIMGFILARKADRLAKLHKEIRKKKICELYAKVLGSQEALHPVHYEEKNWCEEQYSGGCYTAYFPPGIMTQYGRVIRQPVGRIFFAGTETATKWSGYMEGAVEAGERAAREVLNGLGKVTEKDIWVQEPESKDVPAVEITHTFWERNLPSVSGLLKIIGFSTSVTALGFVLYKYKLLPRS
# [4] = target: T3, Amine oxidase [flavin-containing] B (Homo sapiens, UniProt P27338); test: Inhibition of recombinant human MAO-B assessed as fluorescence measured after 30 mins by Amplex Red reagent assay
# T3 sequence (P27338 whole entry): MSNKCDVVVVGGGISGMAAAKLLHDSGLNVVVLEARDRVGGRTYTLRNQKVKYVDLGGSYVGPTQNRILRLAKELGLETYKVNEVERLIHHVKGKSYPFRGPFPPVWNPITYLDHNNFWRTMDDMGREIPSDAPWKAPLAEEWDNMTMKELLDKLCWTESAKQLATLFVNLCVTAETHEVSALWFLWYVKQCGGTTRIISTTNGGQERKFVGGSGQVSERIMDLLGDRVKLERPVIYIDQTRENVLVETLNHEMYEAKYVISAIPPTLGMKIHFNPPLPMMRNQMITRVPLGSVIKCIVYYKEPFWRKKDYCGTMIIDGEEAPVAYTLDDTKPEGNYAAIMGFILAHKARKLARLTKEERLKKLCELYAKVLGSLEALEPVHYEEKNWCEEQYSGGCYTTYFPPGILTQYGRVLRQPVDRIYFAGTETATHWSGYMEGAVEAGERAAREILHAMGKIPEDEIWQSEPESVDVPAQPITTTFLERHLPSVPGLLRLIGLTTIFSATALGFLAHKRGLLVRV
# [5] = Inhibition of Cysteine asparaginase (unknown origin); set-up: species or system Homo sapiens
# Acetylcholinesterase [6] = target: T4, Acetylcholinesterase (Electrophorus electricus, UniProt O42275); test: Inhibition of electric eel AChE using ACTI as substrate measured after 30 mins by spectrometric analysis
# T4 sequence (O42275 whole entry): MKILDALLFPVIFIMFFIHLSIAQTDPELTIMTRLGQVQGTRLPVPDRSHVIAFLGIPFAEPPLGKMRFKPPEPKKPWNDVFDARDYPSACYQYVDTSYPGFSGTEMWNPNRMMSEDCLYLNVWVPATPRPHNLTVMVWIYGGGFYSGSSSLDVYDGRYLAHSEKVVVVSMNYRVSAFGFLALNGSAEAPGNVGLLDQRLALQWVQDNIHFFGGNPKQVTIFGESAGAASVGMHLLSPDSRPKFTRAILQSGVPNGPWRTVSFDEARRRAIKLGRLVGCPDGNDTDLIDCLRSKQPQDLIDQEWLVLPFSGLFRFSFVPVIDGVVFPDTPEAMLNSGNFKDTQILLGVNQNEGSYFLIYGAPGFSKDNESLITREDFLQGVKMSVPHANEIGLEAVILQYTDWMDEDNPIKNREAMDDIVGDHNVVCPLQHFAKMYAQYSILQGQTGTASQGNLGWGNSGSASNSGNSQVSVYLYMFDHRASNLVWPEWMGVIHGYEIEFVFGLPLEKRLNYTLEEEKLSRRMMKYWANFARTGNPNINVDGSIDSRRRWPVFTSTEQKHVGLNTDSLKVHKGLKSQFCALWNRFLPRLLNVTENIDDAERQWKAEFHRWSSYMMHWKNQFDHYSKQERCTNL
# Cholinesterase [7] = target: Cholinesterase (Equus caballus, UniProt P81908); test: Inhibition of equine serum BChE using butyrylthiocholine iodide measured after 25 mins by Ellman's spectrophotometric method
# Chain of Cholinesterase (Equus caballus, UniProt P81908) (P81908 whole entry): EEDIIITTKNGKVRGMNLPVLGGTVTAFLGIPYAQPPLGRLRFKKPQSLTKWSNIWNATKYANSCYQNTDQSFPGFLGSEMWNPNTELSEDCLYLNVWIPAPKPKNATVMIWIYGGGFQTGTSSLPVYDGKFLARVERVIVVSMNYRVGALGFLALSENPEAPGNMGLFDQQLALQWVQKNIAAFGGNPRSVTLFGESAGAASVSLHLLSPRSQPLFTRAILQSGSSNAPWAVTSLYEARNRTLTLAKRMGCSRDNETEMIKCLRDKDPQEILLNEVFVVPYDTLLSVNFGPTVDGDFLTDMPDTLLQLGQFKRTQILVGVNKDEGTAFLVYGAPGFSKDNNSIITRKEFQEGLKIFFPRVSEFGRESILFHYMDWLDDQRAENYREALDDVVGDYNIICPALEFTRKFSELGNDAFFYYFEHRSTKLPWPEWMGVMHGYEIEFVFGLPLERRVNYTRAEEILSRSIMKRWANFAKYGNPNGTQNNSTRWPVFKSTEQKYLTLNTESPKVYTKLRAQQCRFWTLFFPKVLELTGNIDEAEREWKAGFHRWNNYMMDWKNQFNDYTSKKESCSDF
# Acetylcholinesterase [8] = target: T1, Acetylcholinesterase; test: Inhibition of human AChE by Ellman's method
# Cholinesterase [9] = target: T5, Cholinesterase (Homo sapiens, UniProt P06276); test: Inhibition of BChE (unknown origin)
# T5 sequence (P06276 whole entry): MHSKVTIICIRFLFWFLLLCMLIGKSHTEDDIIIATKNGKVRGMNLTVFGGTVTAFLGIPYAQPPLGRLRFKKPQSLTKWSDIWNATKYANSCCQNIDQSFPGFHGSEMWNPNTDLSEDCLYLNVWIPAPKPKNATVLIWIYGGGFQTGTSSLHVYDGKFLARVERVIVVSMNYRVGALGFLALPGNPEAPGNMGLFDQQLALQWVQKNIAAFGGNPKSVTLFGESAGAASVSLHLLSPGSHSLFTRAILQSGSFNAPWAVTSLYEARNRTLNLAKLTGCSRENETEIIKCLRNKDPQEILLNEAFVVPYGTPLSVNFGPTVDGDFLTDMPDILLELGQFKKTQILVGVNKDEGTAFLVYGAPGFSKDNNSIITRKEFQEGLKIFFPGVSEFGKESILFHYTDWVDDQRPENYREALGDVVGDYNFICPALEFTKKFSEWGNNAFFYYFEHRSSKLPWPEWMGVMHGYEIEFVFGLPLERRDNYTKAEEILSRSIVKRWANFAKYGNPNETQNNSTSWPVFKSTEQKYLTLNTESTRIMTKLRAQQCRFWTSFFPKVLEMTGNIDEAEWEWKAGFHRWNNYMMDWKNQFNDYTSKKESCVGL
# Acetylcholinesterase [10] = target: T1, Acetylcholinesterase; test: Inhibition of AChE (unknown origin)
# [11] = target: Acetylcholinesterase (Electrophorus electricus) (UniProt O42275); test: Inhibition of electric eel AChE using acetylthiocholine as substrate at 9 uM by Ellman's spectrophotometric method relative to control
# Chain of Acetylcholinesterase (Electrophorus electricus) (O42275 24-633 limits assumed): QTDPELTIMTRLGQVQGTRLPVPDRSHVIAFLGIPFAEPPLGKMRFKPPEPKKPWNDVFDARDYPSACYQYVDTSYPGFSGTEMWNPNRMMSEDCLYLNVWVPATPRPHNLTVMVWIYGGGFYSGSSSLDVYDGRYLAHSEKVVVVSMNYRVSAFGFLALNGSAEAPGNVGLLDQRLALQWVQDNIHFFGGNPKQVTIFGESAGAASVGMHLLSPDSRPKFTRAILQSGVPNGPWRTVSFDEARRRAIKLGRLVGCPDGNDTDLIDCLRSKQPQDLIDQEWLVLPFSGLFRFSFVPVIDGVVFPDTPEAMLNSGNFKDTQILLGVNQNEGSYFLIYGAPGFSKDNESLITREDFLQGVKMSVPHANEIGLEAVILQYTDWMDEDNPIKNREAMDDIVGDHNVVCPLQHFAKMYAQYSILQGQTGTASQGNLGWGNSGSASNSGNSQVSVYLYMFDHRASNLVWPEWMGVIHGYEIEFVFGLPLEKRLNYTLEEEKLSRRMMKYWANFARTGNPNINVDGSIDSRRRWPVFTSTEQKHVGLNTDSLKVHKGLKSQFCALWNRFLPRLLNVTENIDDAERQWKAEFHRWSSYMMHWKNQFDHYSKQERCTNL
# Histone deacetylase 1 = Histone deacetylase 1 (Homo sapiens, UniProt Q13547); test: Inhibition of HDAC1 (unknown origin)
# Chain of Histone deacetylase 1 (Q13547 whole entry): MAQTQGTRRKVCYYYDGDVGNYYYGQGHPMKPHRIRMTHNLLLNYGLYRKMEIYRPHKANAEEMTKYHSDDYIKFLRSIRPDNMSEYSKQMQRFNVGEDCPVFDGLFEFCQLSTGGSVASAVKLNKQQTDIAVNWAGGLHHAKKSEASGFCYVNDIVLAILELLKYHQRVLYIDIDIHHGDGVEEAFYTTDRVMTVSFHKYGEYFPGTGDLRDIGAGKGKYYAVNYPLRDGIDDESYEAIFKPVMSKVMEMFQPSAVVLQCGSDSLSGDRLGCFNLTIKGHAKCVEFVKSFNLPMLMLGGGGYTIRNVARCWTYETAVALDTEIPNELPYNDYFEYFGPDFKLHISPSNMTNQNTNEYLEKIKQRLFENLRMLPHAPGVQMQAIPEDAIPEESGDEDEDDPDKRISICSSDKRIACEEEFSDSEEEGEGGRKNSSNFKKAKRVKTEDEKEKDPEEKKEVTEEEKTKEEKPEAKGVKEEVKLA
# [12] = target: T6, Protein deacetylase HDAC6 (Homo sapiens, UniProt Q9UBN7); test: Inhibition of HDAC6 (unknown origin)
# T6 sequence (Q9UBN7 whole entry): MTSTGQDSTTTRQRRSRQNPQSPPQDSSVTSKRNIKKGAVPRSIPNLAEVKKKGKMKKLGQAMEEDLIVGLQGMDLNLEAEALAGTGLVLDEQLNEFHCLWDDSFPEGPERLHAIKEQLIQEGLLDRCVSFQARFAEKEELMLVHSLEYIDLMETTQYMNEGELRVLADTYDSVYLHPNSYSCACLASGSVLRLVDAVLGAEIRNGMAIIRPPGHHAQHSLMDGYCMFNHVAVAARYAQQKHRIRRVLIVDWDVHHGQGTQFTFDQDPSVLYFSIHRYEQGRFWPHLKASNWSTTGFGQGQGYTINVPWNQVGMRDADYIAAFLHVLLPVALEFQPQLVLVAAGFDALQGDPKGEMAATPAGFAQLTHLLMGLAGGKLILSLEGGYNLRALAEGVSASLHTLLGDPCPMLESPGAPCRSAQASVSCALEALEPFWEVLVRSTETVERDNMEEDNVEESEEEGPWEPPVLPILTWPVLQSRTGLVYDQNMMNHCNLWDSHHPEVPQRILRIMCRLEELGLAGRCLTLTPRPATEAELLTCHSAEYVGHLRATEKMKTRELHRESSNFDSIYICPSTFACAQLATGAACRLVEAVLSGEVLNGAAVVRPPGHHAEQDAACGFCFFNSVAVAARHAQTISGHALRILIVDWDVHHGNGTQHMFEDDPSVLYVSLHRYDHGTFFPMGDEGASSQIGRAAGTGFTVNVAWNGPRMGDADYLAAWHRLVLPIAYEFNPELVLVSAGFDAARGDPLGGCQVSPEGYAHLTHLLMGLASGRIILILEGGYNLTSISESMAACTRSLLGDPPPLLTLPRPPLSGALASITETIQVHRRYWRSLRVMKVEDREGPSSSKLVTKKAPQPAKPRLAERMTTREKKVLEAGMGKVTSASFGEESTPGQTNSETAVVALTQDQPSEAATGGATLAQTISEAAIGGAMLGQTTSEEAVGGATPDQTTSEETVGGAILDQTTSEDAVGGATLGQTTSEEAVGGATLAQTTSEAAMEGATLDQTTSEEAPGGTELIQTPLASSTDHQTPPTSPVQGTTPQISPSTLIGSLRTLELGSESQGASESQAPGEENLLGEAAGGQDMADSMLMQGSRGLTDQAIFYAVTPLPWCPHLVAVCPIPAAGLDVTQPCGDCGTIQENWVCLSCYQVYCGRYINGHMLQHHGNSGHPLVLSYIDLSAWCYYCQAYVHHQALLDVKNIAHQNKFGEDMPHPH
# Histone deacetylase 2 = Histone deacetylase 2 (Homo sapiens, UniProt Q92769); test: Inhibition of HDAC2 (unknown origin)
# Chain of Histone deacetylase 2 (Q92769 whole entry): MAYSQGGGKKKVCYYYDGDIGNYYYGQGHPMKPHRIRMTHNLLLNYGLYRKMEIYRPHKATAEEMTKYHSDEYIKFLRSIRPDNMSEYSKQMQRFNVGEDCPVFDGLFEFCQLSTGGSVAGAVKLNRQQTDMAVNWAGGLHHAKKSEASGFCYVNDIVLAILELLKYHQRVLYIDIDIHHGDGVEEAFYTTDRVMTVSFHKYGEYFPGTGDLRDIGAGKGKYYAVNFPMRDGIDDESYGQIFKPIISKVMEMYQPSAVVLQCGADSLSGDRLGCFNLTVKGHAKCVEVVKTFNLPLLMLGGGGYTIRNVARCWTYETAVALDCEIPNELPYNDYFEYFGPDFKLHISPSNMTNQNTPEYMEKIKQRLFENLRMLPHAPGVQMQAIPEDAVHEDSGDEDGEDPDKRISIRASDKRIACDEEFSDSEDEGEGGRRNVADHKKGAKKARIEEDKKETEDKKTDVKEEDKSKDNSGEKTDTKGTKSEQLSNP
# [13] = target: High affinity cGMP-specific 3',5'-cyclic phosphodiesterase 9A (Homo sapiens, UniProt O76083); test: Inhibition of PDE9 (unknown origin)
# Chain of High affinity cGMP-specific 3',5'-cyclic phosphodiesterase 9A (O76083 whole entry): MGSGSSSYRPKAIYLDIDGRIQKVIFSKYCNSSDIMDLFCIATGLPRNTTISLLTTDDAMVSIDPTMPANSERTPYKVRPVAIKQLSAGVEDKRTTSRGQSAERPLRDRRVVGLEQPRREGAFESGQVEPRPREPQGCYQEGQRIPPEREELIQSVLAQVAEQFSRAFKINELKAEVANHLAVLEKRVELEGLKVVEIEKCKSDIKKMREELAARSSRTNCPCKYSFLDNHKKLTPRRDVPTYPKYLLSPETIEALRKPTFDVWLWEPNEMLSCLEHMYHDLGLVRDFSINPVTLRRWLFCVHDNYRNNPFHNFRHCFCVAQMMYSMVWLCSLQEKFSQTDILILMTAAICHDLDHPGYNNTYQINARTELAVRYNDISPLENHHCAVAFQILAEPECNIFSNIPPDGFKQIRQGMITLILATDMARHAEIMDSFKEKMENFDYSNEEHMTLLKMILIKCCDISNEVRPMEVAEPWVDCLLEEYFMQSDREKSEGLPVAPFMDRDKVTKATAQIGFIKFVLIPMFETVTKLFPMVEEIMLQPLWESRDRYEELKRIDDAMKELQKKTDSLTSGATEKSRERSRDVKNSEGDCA
# Acetylcholinesterase [14] = target: T1, Acetylcholinesterase; test: Inhibition of AChE (unknown origin) using acetylthiocholine iodide as substrate by Ellman's method
# Cholinesterase [15] = target: T5, Cholinesterase; test: Inhibition of BChE (unknown origin) using butyrylthiocholine iodide as substrate by Ellman's method
# [16] = Inhibition of Calcium channel (unknown origin); set-up: species or system Homo sapiens
# [17] = target: T3, Amine oxidase [flavin-containing] B; test: Inhibition of human MAO-B
# [18] = target: T2, Amine oxidase [flavin-containing] A; test: Inhibition of human MAO-A
# Acetylcholinesterase [19] = target: T4, Acetylcholinesterase; test: Inhibition of electric eel AChE
# Cholinesterase [20] = target: T5, Cholinesterase; test: Inhibition of human BChE by Ellman's method
# Beta-secretase 1 = Beta-secretase 1 (Homo sapiens, UniProt P56817); test: Inhibition of BACE1 (unknown origin)
# T1 sequence (P22303 whole entry): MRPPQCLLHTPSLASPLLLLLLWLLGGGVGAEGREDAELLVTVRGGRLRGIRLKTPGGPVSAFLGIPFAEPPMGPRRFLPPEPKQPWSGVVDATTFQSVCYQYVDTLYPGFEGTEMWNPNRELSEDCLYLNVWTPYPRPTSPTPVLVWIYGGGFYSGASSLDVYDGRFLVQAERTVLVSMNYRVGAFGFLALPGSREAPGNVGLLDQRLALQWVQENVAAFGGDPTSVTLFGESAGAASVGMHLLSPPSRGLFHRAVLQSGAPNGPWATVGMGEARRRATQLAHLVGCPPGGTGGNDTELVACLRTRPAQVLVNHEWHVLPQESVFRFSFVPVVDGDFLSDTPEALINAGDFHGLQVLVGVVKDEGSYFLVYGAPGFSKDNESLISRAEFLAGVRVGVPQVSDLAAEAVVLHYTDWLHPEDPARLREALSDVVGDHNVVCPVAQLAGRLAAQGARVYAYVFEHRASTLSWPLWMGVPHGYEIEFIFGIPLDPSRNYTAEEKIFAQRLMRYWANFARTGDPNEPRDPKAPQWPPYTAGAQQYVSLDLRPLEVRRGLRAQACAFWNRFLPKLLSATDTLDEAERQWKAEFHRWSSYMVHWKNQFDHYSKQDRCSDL
structure (smiles),measurement,setting,value
CCN(CCCCCn1c(C)cc(=O)n(CCCCCN(CC)Cc2cccc(C(=O)OC)c2)c1=O)Cc1cccc(C(=O)OC)c1,IC50,Acetylcholinesterase [1],290 nM
C#CCNc1ccc(-c2cc(-c3ccc(OCCN4CCOCC4)cc3)nc(N)n2)cc1,IC50,Acetylcholinesterase [2],7210 nM
same,IC50,[3],9940 nM
same,IC50,[4],40 nM
CC1(C)CC(=O)c2c(N)nc(Nc3ccccc3)nc2C1,IC50,[5],22 nM
COc1cccc(C2C3=C(CCCC3=O)Oc3nc(C)[nH]c(=O)c32)c1 (stereo not drawn),IC50,Acetylcholinesterase [6],6500 nM
CCN(CC)CCCNC1NC(c2ccccc2)=NC2=C1C/C(C(=O)OC)=C\N(C(C)C)CC2 (stereo not drawn),IC50,Cholinesterase [7],105 nM
N#CC1C(N)N2CCCNC2C(C#N)C12C(=O)Nc1ccccc12 (stereo not drawn),IC50,Acetylcholinesterase [8],4040 nM
Cc1ccc(O)c(CNc2c(N)n(C)c(=O)n(C)c2=O)c1,IC50,Acetylcholinesterase [8],4.65 nM
Cc1cccc(-c2nccc(N3CCOCC3)n2)c1,IC50,Cholinesterase [9],2500 nM
same,IC50,Acetylcholinesterase [10],430 nM
c1ccc(CNCCCCCCNc2ncccn2)cc1,inhibition,[11],92.9%
CCOC(=O)C1=C(C)N=C2SC(c3ccc([N+](=O)[O-])cc3)=NN2C1c1ccc(C=O)cn1 (stereo not drawn),IC50,Acetylcholinesterase [10],82 nM
C[C@@H]1CN(Cc2ccc(CC(=O)CNO)cc2)C[C@H]1c1nc2c(cnn2C2CCOCC2)c(=O)[nH]1,IC50,Histone deacetylase 1,138 nM
same,IC50,[12],508 nM
same,IC50,Histone deacetylase 2,1250 nM
same,IC50,[13],8 nM
COc1cccc(-c2nc(SCCCSc3nc(N)c(C#N)c(-c4cccc(OC)c4)n3)nc(N)c2C#N)c1,IC50,Acetylcholinesterase [14],5720 nM
O=C(NCCCCCCNc1ncccn1)c1ccccc1,inhibition,[11],2.5%
N#Cc1c(N)nc(SCCCSc2nc(N)c(C#N)c(-c3ccc(Br)cc3)n2)nc1-c1ccc(Br)cc1,IC50,Cholinesterase [15],12200 nM
CCN(CCCCCn1c(C)cc(=O)n(CCCCCN(CC)Cc2ccccc2C#N)c1=O)Cc1ccccc1C#N,IC50,Acetylcholinesterase [1],7300 nM
COC(=O)/C1=C/N(C(C)C)CCc2nc(-c3ccccc3)[nH]c(=O)c2C1,IC50,Cholinesterase [7],1300 nM
CCOC(=O)C1=C(C)N(CCC2CCN(Cc3ccccc3)CC2)C(=O)NC1c1coc2c(Cl)cc(Cl)cc2c1=O (stereo not drawn),IC50,[16],1400 nM
CC(c1nc2c(cnn2C2CCCC2)c(=O)[nH]1)C1CC(Cc2ccc(C(=O)NO)cc2)C1 (stereo not drawn),IC50,Histone deacetylase 1,593 nM
same,IC50,[12],40 nM
same,IC50,Histone deacetylase 2,3530 nM
same,IC50,[13],107 nM
C#CCCCOc1ccc(-c2cc(-c3ccc(OCCN4CCOCC4)cc3)nc(-c3ccccc3)n2)cc1,IC50,[17],8600 nM
same,IC50,[18],740 nM
same,IC50,Acetylcholinesterase [19],17500 nM
N#CC1C(N)N2CCCNC2C(C#N)C12C(=O)Nc1ccc(Br)cc12 (stereo not drawn),IC50,Cholinesterase [20],17500 nM
CC(c1nc2c(cnn2C2CCCC2)c(=O)[nH]1)N1CC(Cc2ccc(C(=O)Nc3ccccc3N)cc2)C1 (stereo not drawn),IC50,Histone deacetylase 1,99 nM
same,IC50,[12],> 10000 nM
same,IC50,Histone deacetylase 2,545 nM
same,IC50,[13],57 nM
CN(CCCOc1ccc([N+](=O)[O-])cc1)C(=O)c1cnc(N2CCN(c3ccc(C(=O)N4CCOCC4)cc3[N+](=O)[O-])CC2)nc1,IC50,Acetylcholinesterase [1],900 nM
C#CCOc1ccc(-c2cc(-c3ccc(OCCN4CCOCC4)cc3)nc(N)n2)cc1,IC50,Acetylcholinesterase [2],30500 nM
same,IC50,[3],18 nM
same,IC50,[4],> 50000 nM
C#CCCCOc1ccc(-c2cc(-c3ccc(OCCN4CCCC4)cc3)nc(-c3ccccc3)n2)cc1,IC50,[17],> 50000 nM
same,IC50,[18],750 nM
same,IC50,Acetylcholinesterase [19],2190 nM
COc1cccc(-c2csc(NC(=O)CSc3nc(N)cc(N)n3)n2)c1,IC50,Beta-secretase 1,1400 nM
